Laboratory results as given in ChEMBL document CHEMBL3091417, “Substituted phenyl as a steroid A-ring mimetic: providing agonist activity to a class of arylsulfonamide nonsteroidal glucocorticoid ligands” (Bioorg Med Chem Lett, 2013).
Activity calls are given as the source filed them. The rule behind the calls is not given here.

Each molecule was assayed against T1, Glucocorticoid receptor (Homo sapiens) (UniProt P04150) (assay: Inhibition of glucocorticoid receptor (unknown origin) expressed in baculovirus-infected insect cells up to 10 uM by fluorescence polarization assay).
T1 sequence (whole entry): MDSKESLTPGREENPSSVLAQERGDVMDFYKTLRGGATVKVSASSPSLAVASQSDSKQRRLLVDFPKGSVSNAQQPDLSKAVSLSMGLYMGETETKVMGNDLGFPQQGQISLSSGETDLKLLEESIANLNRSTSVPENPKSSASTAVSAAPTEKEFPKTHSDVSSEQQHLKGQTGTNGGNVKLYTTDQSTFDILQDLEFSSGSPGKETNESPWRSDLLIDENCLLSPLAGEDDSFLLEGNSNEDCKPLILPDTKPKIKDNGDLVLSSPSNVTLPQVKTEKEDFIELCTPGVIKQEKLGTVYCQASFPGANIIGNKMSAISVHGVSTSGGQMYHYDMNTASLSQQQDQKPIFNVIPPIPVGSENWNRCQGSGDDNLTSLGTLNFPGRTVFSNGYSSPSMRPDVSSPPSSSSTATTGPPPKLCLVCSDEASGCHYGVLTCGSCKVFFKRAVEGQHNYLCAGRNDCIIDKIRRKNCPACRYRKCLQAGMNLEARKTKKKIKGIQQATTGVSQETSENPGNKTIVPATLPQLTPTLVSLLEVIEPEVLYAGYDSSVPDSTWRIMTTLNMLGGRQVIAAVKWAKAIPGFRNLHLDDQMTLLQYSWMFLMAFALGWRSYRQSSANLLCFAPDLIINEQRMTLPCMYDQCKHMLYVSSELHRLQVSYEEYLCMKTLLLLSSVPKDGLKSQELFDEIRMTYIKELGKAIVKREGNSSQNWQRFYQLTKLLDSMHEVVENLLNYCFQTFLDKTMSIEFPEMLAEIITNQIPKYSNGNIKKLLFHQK

inhibition | Compound
inactive | Cc1cc(C)c(S(=O)(=O)NC(C)Cc2ccccc2)c(C)c1 (stereo unspecified)

These molecules were tested against T2, Glucocorticoid receptor (Homo sapiens, UniProt P04150) (assay: Inhibition of glucocorticoid receptor (unknown origin) expressed in baculovirus-infected insect cells by fluorescence polarization assay).
T2 sequence (P04150 whole entry): T1 sequence (whole entry)

IC50 [nM] | Compound
83 | CCC(Cc1ccccc1C)NS(=O)(=O)c1c(C)cc(C)cc1C (stereo unspecified)
12 | CCC(Cc1cc(C)c(O)c(C)c1)NS(=O)(=O)c1c(C)cc(C)cc1C (stereo unspecified)
110 | CCC(Cc1c(C)cccc1C)NS(=O)(=O)c1c(C)cc(C)cc1C (stereo unspecified)
23 | CC[C@@H](Cc1ccc(O)c(C)c1)NS(=O)(=O)c1c(C)cc(C)cc1C
10 | CCC(Cc1cccc2ccccc12)NS(=O)(=O)c1c(C)cc(C)cc1C (stereo unspecified)
25 | CCC(Cc1cc(C)ccc1C)NS(=O)(=O)c1c(C)cc(C)cc1C (stereo unspecified)
48 | CCC(Cc1cc(F)cc(F)c1)NS(=O)(=O)c1c(C)cc(C)cc1C (stereo unspecified)
27 | CC[C@@H](Cc1ccc(O)cc1C)NS(=O)(=O)c1c(C)cc(C)cc1C
2 | CC[C@@H](Cc1ccc(O)c(C)c1C)NS(=O)(=O)c1c(C)cc(C)cc1C

Compound | IC50 [nM]
CCC(Cc1ccc(C)cc1)NS(=O)(=O)c1c(C)cc(C)cc1C (stereo unspecified) | 230

Each molecule was assayed against T3, Progesterone receptor (Homo sapiens, UniProt P06401) (assay: Inhibition of progesterone receptor (unknown origin) expressed in baculovirus-infected insect cells by fluorescence polarization assay).
T3 sequence (P06401 whole entry): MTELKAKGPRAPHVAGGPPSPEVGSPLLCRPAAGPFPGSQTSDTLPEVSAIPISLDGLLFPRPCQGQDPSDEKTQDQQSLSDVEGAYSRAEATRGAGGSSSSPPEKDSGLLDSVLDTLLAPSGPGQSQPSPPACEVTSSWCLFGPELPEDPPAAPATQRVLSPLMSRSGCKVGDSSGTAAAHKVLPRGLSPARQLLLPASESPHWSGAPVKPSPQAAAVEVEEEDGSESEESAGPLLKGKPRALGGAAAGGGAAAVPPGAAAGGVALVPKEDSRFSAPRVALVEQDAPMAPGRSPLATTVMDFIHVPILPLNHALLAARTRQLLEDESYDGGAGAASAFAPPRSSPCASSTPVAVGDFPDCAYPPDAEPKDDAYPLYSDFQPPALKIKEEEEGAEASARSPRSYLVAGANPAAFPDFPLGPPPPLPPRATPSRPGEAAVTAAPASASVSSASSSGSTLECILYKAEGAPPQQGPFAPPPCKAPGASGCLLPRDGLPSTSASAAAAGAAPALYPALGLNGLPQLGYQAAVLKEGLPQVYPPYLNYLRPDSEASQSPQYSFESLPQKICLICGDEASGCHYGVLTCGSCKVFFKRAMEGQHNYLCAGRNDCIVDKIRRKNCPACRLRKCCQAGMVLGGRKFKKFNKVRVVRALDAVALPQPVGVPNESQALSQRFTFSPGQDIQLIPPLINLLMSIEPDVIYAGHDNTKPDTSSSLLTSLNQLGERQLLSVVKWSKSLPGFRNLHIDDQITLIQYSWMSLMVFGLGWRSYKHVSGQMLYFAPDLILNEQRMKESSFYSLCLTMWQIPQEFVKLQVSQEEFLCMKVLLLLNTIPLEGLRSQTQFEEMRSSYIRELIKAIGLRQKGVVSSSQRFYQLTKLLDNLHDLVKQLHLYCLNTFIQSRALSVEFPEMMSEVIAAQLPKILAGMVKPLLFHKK

IC50 [nM] | Compound
4200 | CCC(Cc1ccccc1C)NS(=O)(=O)c1c(C)cc(C)cc1C (stereo unspecified)
3500 | CCC(Cc1cc(C)c(O)c(C)c1)NS(=O)(=O)c1c(C)cc(C)cc1C (stereo unspecified)
> 10000 | CCC(Cc1c(C)cccc1C)NS(=O)(=O)c1c(C)cc(C)cc1C (stereo unspecified)
2500 | CC[C@@H](Cc1ccc(O)c(C)c1)NS(=O)(=O)c1c(C)cc(C)cc1C
1500 | CCC(Cc1cccc2ccccc12)NS(=O)(=O)c1c(C)cc(C)cc1C (stereo unspecified)
> 10000 | CCC(Cc1cc(C)ccc1C)NS(=O)(=O)c1c(C)cc(C)cc1C (stereo unspecified)
3400 | CCC(Cc1cc(F)cc(F)c1)NS(=O)(=O)c1c(C)cc(C)cc1C (stereo unspecified)
2800 | CC[C@@H](Cc1ccc(O)cc1C)NS(=O)(=O)c1c(C)cc(C)cc1C
620 | CC[C@@H](Cc1ccc(O)c(C)c1C)NS(=O)(=O)c1c(C)cc(C)cc1C

Compound | IC50 [nM]
CCC(Cc1ccc(C)cc1)NS(=O)(=O)c1c(C)cc(C)cc1C (stereo unspecified) | 3400

These molecules were tested against T4, Mineralocorticoid receptor (Homo sapiens, UniProt P08235) (assay: Inhibition of mineralocorticoid receptor (unknown origin) expressed in baculovirus-infected insect cells by fluorescence polarization assay).
T4 sequence (P08235 whole entry): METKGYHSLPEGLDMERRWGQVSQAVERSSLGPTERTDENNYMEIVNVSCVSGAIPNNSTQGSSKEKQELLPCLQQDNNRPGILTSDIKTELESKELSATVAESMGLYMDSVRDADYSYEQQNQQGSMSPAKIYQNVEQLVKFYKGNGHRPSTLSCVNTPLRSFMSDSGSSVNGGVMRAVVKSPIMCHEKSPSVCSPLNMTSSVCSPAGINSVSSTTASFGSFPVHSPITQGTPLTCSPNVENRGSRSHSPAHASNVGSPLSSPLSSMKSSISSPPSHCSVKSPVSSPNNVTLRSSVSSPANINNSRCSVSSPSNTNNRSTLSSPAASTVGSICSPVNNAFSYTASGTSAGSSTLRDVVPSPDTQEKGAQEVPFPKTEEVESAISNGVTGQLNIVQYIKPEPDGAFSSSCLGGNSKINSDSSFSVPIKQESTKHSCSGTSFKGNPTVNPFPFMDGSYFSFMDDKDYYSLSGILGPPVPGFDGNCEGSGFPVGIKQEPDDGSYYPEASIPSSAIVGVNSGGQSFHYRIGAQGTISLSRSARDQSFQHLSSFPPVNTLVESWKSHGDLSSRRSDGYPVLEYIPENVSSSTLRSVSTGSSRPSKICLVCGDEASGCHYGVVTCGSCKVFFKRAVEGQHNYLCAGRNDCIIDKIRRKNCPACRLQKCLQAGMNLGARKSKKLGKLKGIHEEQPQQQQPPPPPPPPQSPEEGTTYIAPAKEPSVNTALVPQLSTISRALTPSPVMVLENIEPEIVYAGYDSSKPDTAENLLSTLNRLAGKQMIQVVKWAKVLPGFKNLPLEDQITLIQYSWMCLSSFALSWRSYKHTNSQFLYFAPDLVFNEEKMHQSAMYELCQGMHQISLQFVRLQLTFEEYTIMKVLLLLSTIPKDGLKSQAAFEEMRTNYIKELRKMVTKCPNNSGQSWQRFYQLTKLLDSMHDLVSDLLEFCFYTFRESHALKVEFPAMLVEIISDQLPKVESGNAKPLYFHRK

IC50 [nM] | Compound
700 | CCC(Cc1ccccc1C)NS(=O)(=O)c1c(C)cc(C)cc1C (stereo unspecified)
480 | CCC(Cc1cc(C)c(O)c(C)c1)NS(=O)(=O)c1c(C)cc(C)cc1C (stereo unspecified)
> 10000 | CCC(Cc1c(C)cccc1C)NS(=O)(=O)c1c(C)cc(C)cc1C (stereo unspecified)
2300 | CC[C@@H](Cc1ccc(O)c(C)c1)NS(=O)(=O)c1c(C)cc(C)cc1C
190 | CCC(Cc1cccc2ccccc12)NS(=O)(=O)c1c(C)cc(C)cc1C (stereo unspecified)
320 | CCC(Cc1cc(C)ccc1C)NS(=O)(=O)c1c(C)cc(C)cc1C (stereo unspecified)
400 | CCC(Cc1cc(F)cc(F)c1)NS(=O)(=O)c1c(C)cc(C)cc1C (stereo unspecified)
1000 | CC[C@@H](Cc1ccc(O)cc1C)NS(=O)(=O)c1c(C)cc(C)cc1C
270 | CC[C@@H](Cc1ccc(O)c(C)c1C)NS(=O)(=O)c1c(C)cc(C)cc1C

Compound | IC50 [nM]
CCC(Cc1ccc(C)cc1)NS(=O)(=O)c1c(C)cc(C)cc1C (stereo unspecified) | 1100

What follows are molecules tested against T2, Glucocorticoid receptor (assay: Agonist activity at glucocorticoid receptor in human foreskin fibroblasts assessed as IL-1-mediated IL-6 synthesis after 24 hrs).

IC50 [nM] | Compound
> 10000 | CCC(Cc1ccccc1C)NS(=O)(=O)c1c(C)cc(C)cc1C (stereo unspecified)
89 | CCC(Cc1cc(C)c(O)c(C)c1)NS(=O)(=O)c1c(C)cc(C)cc1C (stereo unspecified)
> 10000 | CCC(Cc1c(C)cccc1C)NS(=O)(=O)c1c(C)cc(C)cc1C (stereo unspecified)
> 2000 | CC[C@@H](Cc1ccc(O)c(C)c1)NS(=O)(=O)c1c(C)cc(C)cc1C
> 10000 | CCC(Cc1cccc2ccccc12)NS(=O)(=O)c1c(C)cc(C)cc1C (stereo unspecified)
> 10000 | CCC(Cc1cc(C)ccc1C)NS(=O)(=O)c1c(C)cc(C)cc1C (stereo unspecified)
> 10000 | CCC(Cc1cc(F)cc(F)c1)NS(=O)(=O)c1c(C)cc(C)cc1C (stereo unspecified)
> 2000 | CC[C@@H](Cc1ccc(O)cc1C)NS(=O)(=O)c1c(C)cc(C)cc1C
22 | CC[C@@H](Cc1ccc(O)c(C)c1C)NS(=O)(=O)c1c(C)cc(C)cc1C

Compound | IC50 [nM]
CCC(Cc1ccc(C)cc1)NS(=O)(=O)c1c(C)cc(C)cc1C (stereo unspecified) | > 10000

These molecules were tested against T1, Glucocorticoid receptor (Homo sapiens) (assay: Agonist activity at glucocorticoid receptor in human foreskin fibroblasts assessed as IL-1-mediated IL-6 synthesis at […] after 24 hrs relative to dexamethasone).

Emax [%] | Compound
0 | CCC(Cc1ccccc1C)NS(=O)(=O)c1c(C)cc(C)cc1C (stereo unspecified)
58 | CCC(Cc1cc(C)c(O)c(C)c1)NS(=O)(=O)c1c(C)cc(C)cc1C (stereo unspecified)
0 | CCC(Cc1c(C)cccc1C)NS(=O)(=O)c1c(C)cc(C)cc1C (stereo unspecified)
0 | CC[C@@H](Cc1ccc(O)c(C)c1)NS(=O)(=O)c1c(C)cc(C)cc1C
0 | CCC(Cc1cccc2ccccc12)NS(=O)(=O)c1c(C)cc(C)cc1C (stereo unspecified)
0 | CCC(Cc1cc(C)ccc1C)NS(=O)(=O)c1c(C)cc(C)cc1C (stereo unspecified)
0 | CCC(Cc1cc(F)cc(F)c1)NS(=O)(=O)c1c(C)cc(C)cc1C (stereo unspecified)
0 | CC[C@@H](Cc1ccc(O)cc1C)NS(=O)(=O)c1c(C)cc(C)cc1C
77 | CC[C@@H](Cc1ccc(O)c(C)c1C)NS(=O)(=O)c1c(C)cc(C)cc1C

Compound | Emax [%]
CCC(Cc1ccc(C)cc1)NS(=O)(=O)c1c(C)cc(C)cc1C (stereo unspecified) | 0
